From ChEMBL document CHEMBL1201862, “PubChem BioAssay data set” (2004)
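The compound was tested at five concentrations on cells cultured in 96-well plates, with a 48-hour exposure period. GI50 marks 50% less growth.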 The source made the active and inactive calls. Rule as the data show it: active = GI50 up to about 1.1 µM and inactive = higher.

Tests used:
Assay in all cases: NCI anticancer screen, dose series, 48 h
786-0 = test system: 786-0
A498 = test system: A498
A549 = test system: A549
ACHN = test system: ACHN
BT-549 = test system: BT-549
CAKI-1 = test system: CAKI-1
CCRF-CEM = test system: CCRF-CEM
COLO 205 = test system: COLO 205
DU-145 = test system: DU-145
EKVX = test system: EKVX
HCC 2998 = test system: HCC 2998
HCT-116 = test system: HCT-116
HCT-15 = test system: HCT-15
HL-60 = test system: HL-60
HOP-62 = test system: HOP-62
HOP-92 = test system: HOP-92
HT-29 = test system: HT-29
Hs-578T = test system: Hs-578T
IGROV-1 = test system: IGROV-1
K562 = test system: K562
KM12 = test system: KM12
LOX IMVI = test system: LOX IMVI
M14 = test system: M14
MCF7 = test system: MCF7
MDA-MB-231 = test system: MDA-MB-231
MDA-MB-435 = test system: MDA-MB-435
MDA-N = test system: MDA-N
MOLT-4 = test system: MOLT-4
Malme-3M = test system: Malme-3M
NCI-H226 = test system: NCI-H226
NCI-H23 = test system: NCI-H23
NCI-H460 = test system: NCI-H460
NCI-H522 = test system: NCI-H522
NCI/ADR-RES = test system: NCI/ADR-RES
OVCAR-3 = test system: OVCAR-3
OVCAR-4 = test system: OVCAR-4
OVCAR-5 = test system: OVCAR-5
OVCAR-8 = test system: OVCAR-8
PC-3 = test system: PC-3
RPMI-8226 = test system: RPMI-8226
RXF 393 = test system: RXF 393
SF-268 = test system: SF-268
SF-295 = test system: SF-295
SF-539 = test system: SF-539
SK-MEL-28 = test system: SK-MEL-28
SK-MEL-2 = test system: SK-MEL-2
SK-MEL-5 = test system: SK-MEL-5
SK-OV-3 = test system: SK-OV-3
SN12C = test system: SN12C
SNB-19 = test system: SNB-19
SNB-75 = test system: SNB-75
SR = test system: SR
SW-620 = test system: SW-620
T47D = test system: T47D
TK-10 = test system: TK-10
U-251 = test system: U-251
UACC-257 = test system: UACC-257
UACC-62 = test system: UACC-62
UO-31 = test system: UO-31

Measured: GI50

O=C(OCCNC(=O)N1CC1)OCCNC(=O)N1CC1
inactive: 786-0 > 10 µM | A498 > 10 µM | A549 > 10 µM | ACHN > 10 µM | BT-549 > 10 µM | CAKI-1 > 10 µM | CCRF-CEM > 10 µM | COLO 205 > 10 µM | DU-145 > 10 µM | EKVX > 10 µM | HCC 2998 > 10 µM | HCT-116 > 10 µM | HL-60 > 10 µM | HOP-62 > 10 µM | HOP-92 > 10 µM | HT-29 > 10 µM | Hs-578T > 10 µM | IGROV-1 > 10 µM | K562 > 10 µM | KM12 > 10 µM | LOX IMVI > 10 µM | M14 > 10 µM | MCF7 > 10 µM | MDA-MB-231 > 10 µM | MDA-MB-435 > 10 µM | MDA-N > 10 µM | MOLT-4 > 10 µM | Malme-3M > 10 µM | NCI-H226 > 10 µM | NCI-H23 > 10 µM | NCI-H460 > 10 µM | NCI-H522 > 10 µM | NCI/ADR-RES > 10 µM | OVCAR-3 > 10 µM | OVCAR-4 > 10 µM | OVCAR-5 > 10 µM | OVCAR-8 > 10 µM | PC-3 > 10 µM | RPMI-8226 > 10 µM | RXF 393 > 10 µM | SF-268 > 10 µM | SF-295 > 10 µM | SF-539 > 10 µM | SK-MEL-28 > 10 µM | SK-MEL-2 > 10 µM | SK-MEL-5 > 10 µM | SK-OV-3 > 10 µM | SN12C > 10 µM | SNB-19 > 10 µM | SNB-75 > 10 µM | SR > 10 µM | SW-620 > 10 µM | T47D > 10 µM | TK-10 > 10 µM | U-251 > 10 µM | UACC-257 > 10 µM | UACC-62 > 10 µM | UO-31 > 10 µM
> 10 µM: HCT-15

N#Cc1c(Cl)cc(C#N)n2c1nc1ccccc12
inactive: 786-0 2.59 µM | A498 24.5 µM | A549 15 µM | ACHN 15.2 µM | BT-549 6.12 µM | CAKI-1 5.64 µM | CCRF-CEM 1.3 µM | COLO 205 4.4 µM | DU-145 20.8 µM | EKVX 20.7 µM | HCC 2998 21.2 µM | HCT-116 4.11 µM | HL-60 1.18 µM | HOP-62 21.6 µM | HOP-92 8.04 µM | HT-29 6.87 µM | Hs-578T 25.8 µM | IGROV-1 14.6 µM | K562 3.03 µM | KM12 6.98 µM | LOX IMVI 2.5 µM | M14 9.71 µM | MCF7 9.2 µM | MDA-MB-231 8.87 µM | MDA-MB-435 11.7 µM | MDA-N 10.6 µM | MOLT-4 2.3 µM | Malme-3M 5.35 µM | NCI-H226 33.7 µM | NCI-H23 13.2 µM | NCI-H460 14.9 µM | NCI-H522 2.42 µM | NCI/ADR-RES 15.1 µM | OVCAR-3 5.28 µM | OVCAR-4 13.8 µM | OVCAR-5 16.4 µM | OVCAR-8 5.92 µM | PC-3 18.2 µM | RPMI-8226 4.14 µM | RXF 393 14.2 µM | SF-268 5.6 µM | SF-295 15.3 µM | SF-539 7.24 µM | SK-MEL-28 13.3 µM | SK-MEL-2 17 µM | SK-MEL-5 15.5 µM | SK-OV-3 21.9 µM | SN12C 19.4 µM | SNB-19 > 53.1 µM | SNB-75 19.2 µM | SW-620 3.47 µM | T47D 3.12 µM | TK-10 13.2 µM | U-251 20.8 µM | UACC-257 14.9 µM | UACC-62 18.3 µM | UO-31 7.85 µM
6.07 µM: HCT-15
active: SR 0.532 µM

CC1(C)OC[C@@H](C[C@H](O)COCc2ccccc2)O1
> 100 µM: HCT-15
inactive: 786-0 > 100 µM | A498 > 100 µM | A549 > 100 µM | ACHN > 100 µM | BT-549 > 100 µM | CAKI-1 > 100 µM | CCRF-CEM > 100 µM | COLO 205 > 100 µM | DU-145 > 100 µM | EKVX > 100 µM | HCC 2998 > 100 µM | HCT-116 > 100 µM | HL-60 > 100 µM | HOP-62 > 100 µM | HOP-92 > 100 µM | HT-29 > 100 µM | Hs-578T > 100 µM | IGROV-1 > 100 µM | K562 > 100 µM | KM12 > 100 µM | LOX IMVI > 100 µM | M14 > 100 µM | MCF7 > 100 µM | MDA-MB-231 > 100 µM | MDA-MB-435 > 100 µM | MDA-N > 100 µM | MOLT-4 > 100 µM | Malme-3M > 100 µM | NCI-H226 > 100 µM | NCI-H23 > 100 µM | NCI-H460 > 100 µM | NCI-H522 > 100 µM | NCI/ADR-RES > 100 µM | OVCAR-3 > 100 µM | OVCAR-4 > 100 µM | OVCAR-5 > 100 µM | OVCAR-8 > 100 µM | PC-3 > 100 µM | RPMI-8226 > 100 µM | RXF 393 > 100 µM | SF-268 > 100 µM | SF-295 > 100 µM | SF-539 > 100 µM | SK-MEL-28 > 100 µM | SK-MEL-2 > 100 µM | SK-MEL-5 > 100 µM | SK-OV-3 > 100 µM | SN12C > 100 µM | SNB-19 > 100 µM | SNB-75 > 100 µM | SR > 100 µM | SW-620 > 100 µM | T47D > 100 µM | TK-10 > 100 µM | U-251 > 100 µM | UACC-257 > 100 µM | UACC-62 > 100 µM | UO-31 > 100 µM
